Experimental findings from patent US8314250B2, “Sultam derivatives” (Hoffmann-La Roche Inc., priority 2009, dated 2012) are described below.

Common to all, as to type: cell-based
For one assay, the system named is HeLa cells. Description: CellTiter-Glo luminescent cell viability (cytotoxicity) assay. The settings on record: 10 μM test compound, inhibition of luminescence compared to control cells. The procedure:
Cytotoxicity was assessed using Promega's CellTiter-Glo® luminescent cell viability assay (Promega Corporation, Madison, Wis., USA) as described in Promega Technical Bulletin TB288, revised August 2008. The assay was performed in HeLa cells at a maximum concentration tested of 10 μM of test compound. This assay measures the amount of adenosine triphosphate (ATP) present as a way of quantifying the presence and degree of metabolic activity in cell cultures.
Viable Hela cells were plated at a density of 3000 cells/well in 96 wells in black, clear bottom plates. Cells were allowed to attach to the plate by incubating overnight at 37° C. Test compounds were diluted in DMSO then further diluted in 10% FBS media. Media was removed from the cell plates and 50 μL of the solution was added to each well manually with the exception of the control well, which contained the same volume of 10% FBS media which includes 1% DMSO. Cells were incubated in the presence of compound undisturbed for 48 hours at 37° C. After the 48 hour compound exposure, 50 μL of the pCellTiter Glo® reagent was added. The cell plates were agitated on a shaker for 2 minutes to help lyse the cells. The plate was covered and read for luminescence.
Percent inhibition was calculated as follows: PCT_INHIB=100*[(U−T)/U] Where U represents the Luminescence of wells containing untreated cells and
T represents the Luminescence of wells containing compound-treated cells

In assay [1] the test system is H196, a small cell lung cancer cell line. Description: MTT tetrazolium dye proliferation assay. The settings on record: H196 cells, 5 days; for IC50: 50% inhibition of cell proliferation; for IC90: 90% inhibition of cell proliferation. The procedure: Proliferation was evaluated in an adherent cell line by the tetrazolium dye assay according to the procedure of Denizot and Lang (F. Denizot and R. Lang J. Immunol. Methods 1986, 89, 271-277). The cell line used was H196, a small cell lung cancer cell line obtained from the ATCC (ATCC Number CRL-5823™). The cells were grown in RPMI 1640 medium supplemented with 2.5% fetal bovine serum.
Cells were seeded into clear 96 well tissue culture treated plates at 20,000 cells per well. Plates were incubated overnight at 37° C. in a humidified incubator with 5% CO2. The next day, test compounds were serially diluted to three times the final concentration in the appropriate growth medium. 50 μL of a 3× dilution of drug was added per well for a final volume of 150 uL/well. Six concentrations were tested for each compound ranging from 10 μM to 30 nM. […] 50 μL of 0.75% DMSO in growth media was added per well for a final volume of 150 uL/well. The plates were returned to the incubator and, after 5 days, the plates were analyzed as follows: 3-(4,5-dimethylthiazol-2-yl)-2,5-diphenyl-2H-tetrazolium bromide (thiazolyl blue; MTT; Sigma) was added to each well to yield a final concentration of 1.25 mg/mL. Plates were returned to the incubator for 3 hours. The MTT-containing medium was removed and the resulting formazan metabolite was solubilized in 100% ethanol while shaking for 10 minutes at room temperature. Absorbances were read in a plate reader at a wavelength of 570 nm with a 660 nm reference. The concentrations of compounds leading to 50% and 90% inhibition of cell proliferation were determined by using the curve-fitting functionality of Microsoft Excel from plots of the logarithm of the concentration versus percent inhibition. These concentrations represent the IC50 and IC90 values, respectively.

A further assay has as its system H146 cell line. The experiment in a line: MTS tetrazolium assay (proliferation, non-adherent cell line). The settings on record: H146 cells, 5 days; for IC50: 50% inhibition of cell proliferation; for IC90: 90% inhibition of cell proliferation. The procedure: Proliferation was evaluated in a non-adherent cell line using the MTS tetrazolium dye assay according to the procedure of Malich and colleagues (G. Malich et al. Toxicology 1997, 124, 179-192). The cell line used was H146 (ATCC Number HTB-173™). The cells were grown in RPMI 1640 medium supplemented with 2.5% fetal bovine serum.
Cells were seeded into clear 96 well tissue culture treated plates at 20,000 cells per well. Plates were incubated overnight at 37° C. in a humidified incubator with 5% CO2. The next day, test compounds were serially diluted to three times the final concentration in the appropriate growth medium. 50 μL of a 3× dilution of drug was added per well for a final volume of 150 uL/well. […] 50 μL of 0.75% DMSO in growth media was added per well for a final volume of 150 uL/well. The plates were returned to the incubator. After 5 days CellTiter 96® AQueous One Solution (Promega Corporation, Madison, Wis., USA) (25 μL/well) was added to each well and the plates were placed back in the incubator for 2-3 h. The absorbance at 490 nm was measured for each well using a plate reader. The concentrations of compounds leading to 50% and 90% inhibition of cell proliferation were determined by using the curve-fitting functionality of Microsoft Excel from plots of the logarithm of the concentration versus percent inhibition. These concentrations represent the IC50 and IC90 values, respectively.
A general note: Tetrazolium assays rely on reduction of a dye to a coloured formazan, in cell work by metabolically active cells.

Take `COc1ccc(Cl)c(CN(Cc2cccc(CN3C(C(=O)N[C@H]4C[C@H]5C[C@@H]([C@@H]4C)C5(C)C)CCS3(=O)=O)c2)[C@H](CN(C)C)CC(C)(C)C)c1F` (single isomer, unassigned; epimer 2) [Example 26]: in the assay on HeLa cells (48 hours, 10 µM), the “Activity (PCT_INHIB @ 10 μM)” value is 97%. Further, in assay [1] (NCI-H196, 120 h), the IC50 (as a rule, the concentration that gives 50% inhibition) came out at 1300 nM and the 90% effect level (IC90) was put at 1800 nM. In the assay with H146 cell line, 700 nM corresponded to half-maximal inhibition (IC50) and the IC90 (usually the point of the concentration-response curve where the effect stands at 90%) was 1200 nM.

Take `COc1ccc(Cl)c(CN(Cc2cccc(CN3C(C(=O)N[C@H]4C[C@H]5C[C@@H]([C@@H]4C)C5(C)C)CCS3(=O)=O)c2)[C@H](CN(C)C)CC(C)(C)C)c1F` (single isomer, unassigned; epimer 1) [Example 25]: in the assay on HeLa cells (Homo sapiens, HeLa, 48 h, read-out: Activity (PCT_INHIB @ 10 μM)), the inhibition at 10 µM was determined as 96%. In assay [1], half-maximal inhibition (IC50) was put at 1400 nM and it took 1900 nM to reach the 90% level (IC90). In addition, in the assay on H146 cell line, half-maximal inhibition (IC50) required 1600 nM and the IC90 turned out to be 3100 nM.
